Test [1] deals with Fusarium graminearum. The experiment in a line: microbe, parasite or virus in culture. Particulars: read-out: Inhibition rate, Fg. The test is classed as cell-based.
Test [2] concerns Botrytis cinerea. The format is cell-based. Particulars: read-out: Inhibition rate, Bc.
In test [3] the test system is Fusarium oxysporium f. sp. cucumeris. The format is cell-based. To be noted: read-out: Inhibition rate, Fc.
The test system of test [4] is Alternaria solani. The format is cell-based. Particulars: read-out: Inhibition rate, As.
The subject of test [5] is Bipolaris maydis. The format is cell-based. Particulars: read-out: Inhibition rate, Bm.
The test system of test [6] is watermelon anthracnose. Put plainly: organism not typed. The format is cell-based. Particulars: read-out: Inhibition rate, Wa.
The test system of test [7] is Sclerotinia sclerotiorum. The test is classed as cell-based. Particulars: read-out: Inhibition rate, Ss.
The test system of test [8] is Rhizoctonia solani. The format is cell-based. To be noted: read-out: Inhibition rate, Rs.
Test [9] has as its system Phytophthora capsici. The format is cell-based. Particulars: read-out: Inhibition rate, Pc.
Test [10] deals with TMV. Put plainly: Inactivation effect of compounds against TMV in vivo. Also noted: species or system tobacco mosaic virus. To be noted: Tobacco mosaic virus, read-out: relative inhibition rate (%) inactive effect.
Test [11] concerns Physalospora piricola. The format is cell-based. To be noted: read-out: Inhibition rate, Pp, 50 mg/L, Physalospora piricola.

Bounds are passed on as bounds.

As for `O=C(Cn1ccc(=O)c2ccccc21)NN=Cc1ccccc1[N+](=O)[O-]` [Compound 16], the inhibition at 50 µg/mL in test [1] was determined as 23.8 ± 1.7%; in test [2], 20.8 ± 1.2%; in test [3] it was 18.4 ± 1.3%; in test [4], 30.8 ± 1.4%; in [5] it was 13.3 ± 1.5%; in [6], 23.3 ± 1.6%. Besides, the results for the inhibition at 50 µg/mL in test [7], in test [8] and in test [9] were 24.4 ± 1.1%, 35.7 ± 1.5% and 14.3 ± 0.7%, respectively. Also, the inhibition at 100 µg/mL in test [10] is 0%. The inhibition at 500 µg/mL in test [10] was found to be 14.6 ± 4%.

`CC(C)(C)c1ccc(C=NNC(=O)Cn2ccc(=O)c3ccccc32)cc1` [Compound 3]: the inhibition at 50 µg/mL was determined as 16.7 ± 1.3% in test [1]; 29.2 ± 1.7% in test [2]; 10.2 ± 1.6% in [3]; 35.3 ± 2.1% in test [11]; 30.8 ± 2.3% in test [4]; 8.9 ± 0.7% in [5]. The inhibition at 50 µg/mL is 16.3 ± 1.3% in test [6], 22 ± 1.9% in [7], 17.9 ± 1.8% in test [8] and 23.8 ± 1.5% in test [9]. In addition, the inhibition at 100 µg/mL in test [10] is 0%. For the same compound, the inhibition at 500 µg/mL in test [10] worked out at 24.1 ± 1%.

As for `O=C(Cn1ccc(=O)c2ccccc21)NN=Cc1cccs1` [Compound 21], the inhibition at 50 µg/mL was 9.5 ± 1.4% in test [1]; 31.3 ± 2.1% in test [2]; 12.2 ± 1.6% in test [3]; 76.5 ± 2.7% in [11]; 38.5 ± 1.3% in test [4]; 17.8 ± 1.2% in [5]. The inhibition at 50 µg/mL in [6] was found to be 14 ± 0.7%; in test [7] it was 17.1 ± 1.7%; in test [8], 35.7 ± 1.5%; in [9] it was 26.2 ± 2.3%. In addition, the inhibition at 100 µg/mL in test [10] worked out at 0%. In [10], the inhibition at 500 µg/mL was 12.3 ± 1.7%.

`O=C(Cn1ccc(=O)c2ccccc21)NN=Cc1ccccc1` [Compound 1]: the inhibition at 50 µg/mL in test [1] is 14.3 ± 1.2%; in test [2], 33.3 ± 1.6%; in test [3], 22.4 ± 1.9%; in [11] it was 16.2 ± 0.5%; in [4], 30.8 ± 2.3%; in test [5], 15.6 ± 1.7%. The inhibition at 50 µg/mL amounted to 16.3 ± 1.3% in test [6], 19.5 ± 0.7% in [7], 14.3 ± 1.3% in [8] and 21.4 ± 1.1% in test [9]. In addition, the inhibition at 100 µg/mL in test [10] was 0%. Further, the inhibition at 500 µg/mL in test [10] came to 29.3 ± 1.4%.

`COc1ccc(C=NNC(=O)Cn2ccc(=O)c3ccccc32)cc1OC` [Compound 5]: the inhibition at 50 µg/mL was found to be 14.3 ± 1.5% in [1]; 18.8 ± 1.9% in [2]; 16.3 ± 1.3% in test [3]; 22.1 ± 1.5% in test [11]; 30.8 ± 2.1% in test [4]; 11.1 ± 0.7% in [5]. Also, the inhibition at 50 µg/mL in test [6] amounted to 16.3 ± 1.2%; in [7] it was 24.4 ± 1.1%; in test [8] it was 12.5 ± 1.4%; in test [9], 14.3 ± 0.9%. For the same compound, the inhibition at 100 µg/mL in test [10] amounted to 0%. The inhibition at 500 µg/mL in test [10] is 11.3 ± 3.2%.

As for `CCOC(=O)Cn1ccc(=O)c2ccccc21` [Compound B, (4-Oxo-4H-quinolin-1-yl)-acetic Acid Ethyl Ester], in test [10], the inhibition at 100 µg/mL stood at 0% and the inhibition at 500 µg/mL stood at 32.1 ± 1.6%.

For `Cc1ccc(C=NNC(=O)Cn2ccc(=O)c3ccccc32)cc1` [Compound 2], the inhibition at 50 µg/mL in [1] worked out at 14.3 ± 1.3%; in [2], 25 ± 1.5%; in test [3], 28.6 ± 2.3%; in test [11], 17.6 ± 1.4%; in test [4], 30.8 ± 1.6%; in test [5], 11.1 ± 2.1%. The inhibition at 50 µg/mL worked out at 14 ± 1.3% in [6], 12.2 ± 1.2% in [7], 17.9 ± 1.7% in test [8] and 26.2 ± 1.8% in test [9]. In addition, the inhibition at 100 µg/mL in [10] came to 0%. In addition, in [10], the inhibition at 500 µg/mL was found to be 26.7 ± 3%.

`O=C(Cn1ccc(=O)c2ccccc21)NN=Cc1ccc(Cl)cc1` [Compound 13]: the inhibition at 50 µg/mL in test [1] is 2.4 ± 0.9%; in [2] it was 14.6 ± 1.3%; in test [3], 24.5 ± 1.3%; in test [11] it was 17.6 ± 1.5%; in test [4] it was 30.8 ± 1.3%; in test [5] it was 8.9 ± 0.7%. For the same compound, the inhibition at 50 µg/mL came out at 27.9 ± 2.3% in test [6], 7.3 ± 0.5% in test [7], 12.5 ± 1.4% in [8] and 14.3 ± 1.3% in [9]. Further, the inhibition at 100 µg/mL in test [10] turned out to be 0%. In test [10], the inhibition at 500 µg/mL turned out to be 18.6 ± 0.7%.

On to `O=C(Cn1ccc(=O)c2ccccc21)NN=Cc1ccc(Br)cc1` [Compound 14], for which the inhibition at 50 µg/mL in test [1] was determined as 2.4 ± 0.6%; in test [2] it was 20.8 ± 2.1%; in test [3], 22.4 ± 1.3%; in test [11] it was 32.4 ± 2.3%; in test [4], 23.1 ± 1.5%; in test [5] it was 4.4 ± 0.6%. Further, the inhibition at 50 µg/mL in test [6] worked out at 18.6 ± 1.7%; in test [7] it was 2.4 ± 0.4%; in [8] it was 1.8 ± 0.7%; in test [9], 21.4 ± 1.8%. The inhibition at 100 µg/mL in test [10] was 0%. Further, the inhibition at 500 µg/mL in test [10] stood at 31.7 ± 2.5%.

On to `N#Cc1c(Cl)c(Cl)c(Cl)c(C#N)c1Cl` [chlorothalonil, reference compound], for which the inhibition at 50 µg/mL worked out at 73 ± 0.9% in test [1]; 100% in [2]; 100% in test [3]; 91 ± 1.3% in test [11]; 100% in [4]; 86 ± 1.2% in test [5]. Besides, the inhibition at 50 µg/mL in [6] is 100%; in test [7], less than 50%; in test [8] it was less than 50%; in test [9] it was 73 ± 1.3%.

In the case of `O=C(Cn1ccc(=O)c2ccccc21)NN=Cc1ccc([N+](=O)[O-])cc1` [Compound 15], the inhibition at 50 µg/mL was found to be 7.1 ± 1.3% in test [1]; 27.1 ± 2.4% in test [2]; 24.5 ± 1.6% in test [3]; 72.1 ± 2.6% in [11]; 30.8 ± 1.1% in [4]; 40 ± 1.3% in test [5]. Further, the inhibition at 50 µg/mL is 34.9 ± 1.5% in [6], 12.2 ± 1.4% in test [7], 17.9 ± 1.3% in test [8] and 14.3 ± 0.6% in [9]. Besides, the inhibition at 100 µg/mL in test [10] stood at 0%. Besides, in [10], the inhibition at 500 µg/mL is 16.1 ± 4.8%.

On to `O=C(Cn1ccc(=O)c2ccccc21)NN=Cc1cccnc1` [Compound 19], for which the inhibition at 50 µg/mL in test [1] amounted to 26.2 ± 0.9%; in [2] it was 20.8 ± 0.9%; in [3], 26.5 ± 0.7%; in test [11], 44.1 ± 2.8%; in [4] it was 46.2 ± 2.2%; in test [5] it was 46.7 ± 1.1%. Besides, the inhibition at 50 µg/mL is 46.5 ± 1.3% in test [6], 36.6 ± 1.6% in test [7], 26.8 ± 1.4% in [8] and 14.3 ± 1.2% in [9]. The inhibition at 100 µg/mL in test [10] was 0%. Moreover, in test [10], the inhibition at 500 µg/mL amounted to 20.5 ± 3.6%.

As for `O=C(Cn1ccc(=O)c2ccccc21)NN=Cc1cscn1` [Compound 22], the inhibition at 50 µg/mL came out at 2.4 ± 0.5% in test [1]; 25 ± 2.1% in test [2]; 12.2 ± 1.6% in test [3]; 32.4 ± 1.3% in test [11]; 7.7 ± 1.2% in test [4]; 8.9 ± 0.8% in test [5]. For the same compound, the inhibition at 50 µg/mL amounted to 14 ± 1.7% in test [6], 7.3 ± 0.9% in test [7], 26.8 ± 1.1% in test [8] and 26.2 ± 1.5% in test [9]. For the same compound, in test [10], the inhibition at 100 µg/mL was found to be 0%. Also, the inhibition at 500 µg/mL in test [10] worked out at 23.9 ± 1.1%.

Take `CSc1ccc(C=NNC(=O)Cn2ccc(=O)c3ccccc32)cc1` [Compound 10]: the inhibition at 50 µg/mL is 2.4 ± 0.6% in test [1]; 14.6 ± 1.2% in test [2]; 12.2 ± 1.3% in test [3]; 58.8 ± 3.2% in [11]; 30.8 ± 2.1% in test [4]; 13.3 ± 0.9% in test [5]. In addition, the inhibition at 50 µg/mL is 14 ± 1.7% in test [6], 7.3 ± 1.4% in [7], 3.6 ± 1.1% in test [8] and 23.8 ± 1.6% in [9]. Further, the inhibition at 100 µg/mL in test [10] was 0%. Further, the inhibition at 500 µg/mL in test [10] was 15.4 ± 2%.

Consider `O=C(Cn1ccc(=O)c2ccccc21)NN=Cc1ccc(F)cc1` [Compound 12], for which the inhibition at 50 µg/mL in test [1] stood at 21.4 ± 1.4%; in test [2], 25 ± 1.4%; in test [3], 16.3 ± 1.5%; in test [4], 23.1 ± 1.1%; in [5], 15.6 ± 1.7%; in test [6] it was 16.3 ± 1.6%. Also, the results for the inhibition at 50 µg/mL in test [7], in [8] and in [9] were 7.3 ± 1.2%, 32.1 ± 2.1% and 14.3 ± 1.6%, respectively. Besides, the inhibition at 100 µg/mL in [10] was 0%. For the same compound, the inhibition at 500 µg/mL in test [10] amounted to 27.4 ± 3.9%.

On to `COC(=O)Nc1nc2ccccc2[nH]1` [carbendazim, reference compound], for which the inhibition at 50 µg/mL in test [1] came out at 29 ± 1.7%; in test [2], 86 ± 1.4%; in test [11] it was 96 ± 1.2%; in [4], 98 ± 1.4%; in test [6], 100%; in test [7], 100%. Moreover, the inhibition at 50 µg/mL in test [8] was determined as 100%.

For the origin of these results see article PMC11360041 (ACS Omega, 2024).
